According to EP4563579A1, “MACROCYCLIC EGFR INHIBITOR, AND PREPARATION METHOD THEREFOR AND PHARMACEUTICAL USE THEREOF” (Abbisko Therapeutics Co., Ltd., priority 2022, dated 2024):

Key:
Format in all cases: cell-based
A431 WT = assay: Cell proliferation assay (CellTiter-Glo), A431 WT; conditions: Homo sapiens, A-431; A431 WT cells, 72 hour incubation, CTG readout
Protocol: (§1) • DMEM Medium (Gibco, Cat#11965118) • RPMI1640 Medium (Gibco, Cat#11875119) • Fetal Bovine Serum (FBS) (GBICO, Cat#10099-141) • CellTiter-Glo® Luminescent Cell Viability Assay Kit (Promega, Cat#G7572) 96-well, Black, Clear Flat Bottom Plate (Corning®, Cat# 3603)
(§2) • SpectraMax Multimode Microplate Reader MD, 2104-0010A; • CO2 Incubator, Thermo Scientific 3100 Series; • Biosafety Cabinet, Thermo Scientific, 1300 Series A2; • Inverted Microscope, Olympus, CKX41SF; • Siemens Refrigerator, KK25E76TI.
(§3) • 1. Cell Culture and Inoculation: • (1) Harvest cells in a logarithmic growth phase and count the cells using a […]. Test cell viability using a trypan blue exclusion method to ensure that cell viability is above 90%. • (2) Adjust the cell concentration to desired final density; and add 90 µL of cell suspension to a 96-well plate. • (3) Incubate the cells overnight at 37°C, under 5% CO2 and 95% humidity in the 96-well plate. • 2. T0 Reference Data: • (1) Add 10 µL PBS to each well of the T0 plate containing cells. • (2) Thaw the CTG reagent and equilibrate the plate to room temperature for 30 minutes. • (3) Add an equal volume of CTG solution to each well. • (4) Lyse cells by shaking on an orbital shaker for 5 minutes. • (5) Leave the plate at room temperature for 20 minutes to stabilize the luminescence signal. • (6) Read the T0 […]. • 3. Compound Dilution and Addition • (1) Add a corresponding volume of DMSO to a corresponding compound powder according to the compound information sheet to prepare a 10 mM stock solution. • (2) Prepare 1000-fold and 3.16-fold diluted compound solutions. • (3) Dilute the 1000× diluted compound solution 100-fold with PBS to prepare a 10-fold compound solution, with a maximum concentration of 10 µM, nine concentrations and 3.16-fold dilution. Then add 10 µL of the drug solution concentration to individual wells of the 96-well plate seeded with cells. Test each compound concentration in triplicate wells, and the final DMSO concentration is 0.1%. • (4) Incubate the cells in the 96-well plate containing the drug compounds at 37°C, under 5% CO2, and 95% humidity for an additional 72 hour period prior to performing the CTG analysis. • 4. Fluorescence Signal Reading • (1) Thaw the CTG reagent and equilibrate the plate to room temperature for 30 minutes. • (2) Add an equal volume of CTG solution to each well. • (3) Lyse cells by shaking on an orbital shaker for 5 minutes. • (4) Leave the plate at room temperature for 20 minutes to stabilize the […]. • (5) Read fluorescence value. • 5. Data Processing
(§4) Analyze the data by using GraphPad Prism 7.0 software, and use Non-linear S-curve regression to fit the dose-response curves, to calculate the IC50 values (in nM). The specific experiment results are presented in Table 1: [formula] Table 1: Biology Test Results

[1] = tested on: Ba/F3 EGFR-DEL19-T790M-C797S (DTC); assay: Cell proliferation assay (CellTiter-Glo), Ba/F3 DTC; conditions: Ba/F3 EGFR-DEL19-T790M-C797S cells, 72 hour incubation, CTG readout; read-out: IC50 BaF3 DTC
Protocol: as §1, §2, §3, §4

[2] = tested on: Ba/F3 EGFR-DEL19-C797S (DC); assay: Cell proliferation assay (CellTiter-Glo), Ba/F3 DC; conditions: Mus musculus, BaF3; Ba/F3 EGFR-DEL19-C797S cells, 72 hour incubation, CTG readout
Protocol: as §1, §2, §3, §4

[3] = tested on: Ba/F3 EGFR-L858R-C797S (LC); assay: Cell proliferation assay (CellTiter-Glo), Ba/F3 LC; conditions: Mus musculus, BaF3; Ba/F3 EGFR-L858R-C797S cells, 72 hour incubation, CTG readout
Protocol: as §1, §2, §3, §4

[4] = tested on: Ba/F3 EGFR-L858R-T790M-C797S (LTC); assay: Cell proliferation assay (CellTiter-Glo), Ba/F3 LTC; conditions: Mus musculus, BaF3; Ba/F3 EGFR-L858R-T790M-C797S cells, 72 hour incubation, CTG readout
Protocol: as §1, §2, §3, §4

| Compound | IC50 (A431 WT) | IC50 [1] | IC50 [2] | IC50 [3] | IC50 [4] |
| --- | --- | --- | --- | --- | --- |
| Cn1ncc2c1OCC1(CCCC1)Cn1nc(N3CC[C@@H](CS(C)(=O)=O)C3)c3cnc(cc31)Nc1ccnc-2n1 [Example 27, (R)-1'-methyl-3'-(3-((methylsulfonyl)methyl)pyrrolidin-1-yl)spiro(cyclopentane-1 ,6'-8-oxa-3-aza-4(6,1)-pyrazolo[4,3-c]pyridina-2(2,4)-pyrimidina-1(4,5)-pyrazolacyclooctaphane)] | 587 nM | 1 nM | 1.1 nM | 13.4 nM | 5.2 nM |
| Cn1ncc2c1OCC1(CCCC1)Cn1nc(N3CCC[C@@H](CS(C)(=O)=O)C3)c3cnc(cc31)Nc1ccnc-2n1 [Example 28, (R)-1'-methyl-3'-(3-((methylsulfonyl)methyl)piperidin-1-yl)spiro(cyclopentane-1, 6'-8-oxa-3-aza-4(6,1)-pyrazolo[4,3-c]pyridina-2(2,4)-pyrimidina-1(4,5)-pyrazolacyclooctaphane)] | 682 nM | 12.4 nM | 12.8 nM | 45.7 nM | 86.9 nM |
| Cn1ncc2c1OCC1(CCCC1)Cn1nc(N3CC[C@@H](CS(=O)(=O)C4CC4)C3)c3cnc(cc31)Nc1ccnc-2n1 [Example 30] | 744 nM | 2.4 nM | 2.5 nM | 11.8 nM | 5.8 nM |
| CC(C)S(=O)(=O)C[C@@H]1CCN(c2nn3c4cc(ncc24)Nc2ccnc(n2)-c2cnn(C)c2OCC2(CCCC2)C3)C1 [Example 31, (R)-3'-(3-((isopropylsulfonyl)methyl)pyrrolidin-1-yl)-1 '-methylspiro(cyclopentane-1,6'-8-oxa-3-aza-4(6,1)-pyrazolo[4,3-c]pyridina-2(2,4)-pyrimidina-1(4,5)-pyrazolacyclooctaphane)] | 366 nM | 4.8 nM | 3.5 nM | 10.8 nM | 4.3 nM |
| Cn1ncc2c1OCC1(CCCCC1)Cn1nc(N3CC[C@@H](CS(C)(=O)=O)C3)c3cnc(cc31)Nc1ccnc-2n1 [Example 32, (R)-1'-methyl-3'-(3-((methylsulfonyl)methyl)pyrrolidin-1-yl)spiro(cyclohexane-1, 6'-8-oxa-3-aza-4(6,1)-pyrazolo[4,3-c]pyridina-2(2,4)-pyrimidina-1(4,5)-pyrazolacyclooctaphane)] | 543 nM | 10.5 nM | 5.1 nM | 14.9 nM | 12.1 nM |
| Cn1ncc2c1OCC1(CCCCC1)Cn1nc(N3CC[C@H](CS(C)(=O)=O)C3)c3cnc(cc31)Nc1ccnc-2n1 [Example 36, (S)-1'-methyl-3'-(3-((methylsulfonyl)methyl)pyrrolidin-1-yl)spiro(cyclohexane-1,6' -8-oxa-3-aza-4(6,1)-pyrazolo[4,3-c]pyridina-2(2,4)-pyrimidina-1(4,5)-pyrazolacyclooctaphane)] | 614 nM | 1.5 nM | 2.5 nM | 5.1 nM | 2 nM |
| CCCCS(=O)(=O)C[C@H]1CCN(c2nn3c4cc(ncc24)Nc2ccnc(n2)-c2cnn(C)c2OCC2(CCCC2)C3)C1 [Example 43, (S)-3'-(3-((butylsulfonyl)methyl)pyrrolidin-1-yl)-1'-me thylspiro(cyclopentane-1,6' -8-oxa-3-aza-4(6,1)-pyrazolo[4,3-c]pyridina-2(2,4)-pyrimidina-1(4,5)-pyrazolacyclooctaphane)] | 700 nM | 3.6 nM | 5 nM | 2.9 nM | 1.3 nM |
| Cn1ncc2c1OCC1(CCCC1)Cn1nc(N3CC[C@H](CS(=O)(=O)C4CCC4)C3)c3cnc(cc31)Nc1ccnc-2n1 [Example 44, (S)-3'-(3-((cyclobutylsulfonyl)methyl)pyrrolidin-1-yl)-1 '-methylspiro(cyclopentane-1,6'-8-oxa-3-aza-4(6,1)-pyrazolo[4,3-c]pyridina-2(2,4)-pyrimidina-1(4,5)-pyrazolacyclooctaphane)] | 1130 nM | 4 nM | 10.1 nM | 5.3 nM | 1.9 nM |
| Cn1ncc2c1OCC1(CCCC1)Cn1nc(N3CC[C@H](CS(=O)(=O)C4CCCC4)C3)c3cnc(cc31)Nc1ccnc-2n1 [Example 45, (S)-3'-(3-((cyclopentylsulfonyl)methyl)pyrrolidin-1-yl)-1'-methylspiro(cyclopentane-1,6'-8-oxa-3-aza-4(6,1)-pyrazolo[4,3-c]pyridina-2(2, 4)-pyrimidina-1(4,5)-pyrazolacyclooctaphane)] | 738 nM | 3.9 nM | 4 nM | 2.9 nM | 1.1 nM |
| Cn1ncc2c1OCC1(CCCC1)Cn1nc(N3CC[C@@H](NS(C)(=O)=O)C3)c3cnc(cc31)Nc1ccnc-2n1 [Example 48, (R)-N-(1-(1'-methylspiro(cyclopentane-1,6'-8-oxa-3-aza-4(6,1)-pyrazolo[4,3-c]pyridina-2(2,4)-pyrimidina-1(4,5)-pyrazolacyclooctaphane)-3'-yl)pyrrolidin-3-yl)metha nesulfonamide] | 357 nM | 2 nM | 2.5 nM | 7.6 nM | 4.5 nM |
| COC(=O)N[C@H]1CCN(c2nn3c4cc(ncc24)Nc2ccnc(n2)-c2cnn(C)c2OCC2(CCCC2)C3)C1 [Example 55, Methyl (S)-(1-(1'-methylspiro(cyclopentane-1,6'-8-oxa-3-aza-4(6,1)-pyrazolo[4,3-c]pyridina-2(2,4)-pyrimidina-1(4,5)-pyrazolacyclooctaphane)-3'-yl)pyrrolidin-3-yl)carbamate] | 329 nM | 8.5 nM | 12.1 nM | 33.1 nM | 12 nM |
| CCS(=O)(=O)N[C@H]1CCN(c2nn3c4cc(ncc24)Nc2ccnc(n2)-c2cnn(C)c2OCC2(CCCC2)C3)C1 [Example 57] | 251 nM | 3.1 nM | 5.3 nM | 22.8 nM | 7.9 nM |
| Cn1ncc2c1OCC1(CCCC1)Cn1nc(N3CC[C@@H](NS(=O)(=O)C4CC4)C3)c3cnc(cc31)Nc1ccnc-2n1 [Example 58, (R)-N-(1-(1'-methylspiro(cyclopentane-1,6'-8-oxa-3-aza-4(6,1)-pyrazolo[4,3-c]pyridina-2(2,4)-pyrimidina-1(4,5) -pyrazolacyclooctaphane)-3' -yl)pyrrolidin-3-yl)cyclopro panesulfonamide] | 911 nM | 2.8 nM | 7.2 nM | 6.9 nM | 2.1 nM |
| CC#Cc1nn2c3cc(ncc13)Nc1ccnc(n1)-c1cnn(C)c1OCC[C@@H]2C [Example A1, (S)-1^1,5-dimethyl-4^3-(prop-1-yn-1-yl)-1^1H,4^1H-8-oxa-3-aza-4(6,1)-pyrazolo[4,3-c]py ridina-2(2,4)-pyrimidina-1(4,5)-pyrazolacyclooctaphane] | 2700 nM | 64.9 nM | 40.9 nM | 299 nM | 262 nM |
| C[C@H]1CCOc2c(cnn2C)-c2nccc(n2)Nc2cc3c(cn2)c(N2CC(CS(C)(=O)=O)C2)nn31 [Example A4, (S)-1^1,5-dimethyl-4^3-(3-((methylsulfonyl)methyl)azetidin-1-yl)-1^1H,4^1H-8-oxa-3-az a-4(6,1)-pyrazolo[4,3-c]pyri dina-2(2,4)-pyrimidina-1(4, 5)-pyrazolacyclooctaphane] | 2680 nM | 244 nM | 176 nM | 380 nM | 186 nM |
